Test in all cases: growth of human tumour cells (NCI), 48 h
Assay [1] has as its system 786-0 renal.
In assay [2] the test system is A549 NSCLC.
The test system of assay [3] is EKVX NSCLC.
In assay [4] the test system is HOP-62 NSCLC.
The test system of assay [5] is MOLT-4 leukemia.
Assay [6] has as its system NCI-H226 lung.
Assay [7] deals with NCI-H522 lung.
Assay [8] has as its system SF-539 CNS.
Assay [9] concerns SK-OV-3 ovarian.
Assay [10] has as its system SN12C renal.

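Compound exposure: 48 hours, 5 concentrations, 96-well plates. Here, GI50 denotes the concentration required for 50% inhibition of growth. TGI denotes the concentration required for complete inhibition of growth.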

For the compound `C=CCOc1c(Br)cc(Br)cc1Br`, the GI50 in [1] was 34.1 µM; in assay [2] it was 45.8 µM; in assay [3], 10.3 µM; in [4] it was 23.5 µM; in assay [5] it was 14.7 µM; in assay [6] it was 24.8 µM. Moreover, the GI50 in assay [7] is 4.68 µM; in assay [8] it was 20.9 µM; in [9], 55.5 µM; in assay [10], 30 µM. Moreover, the TGI in assay [1] is above 100 µM; in assay [2] it was above 100 µM; in [3], above 100 µM; in assay [4], above 100 µM; in assay [5], 99.1 µM; in assay [6], above 100 µM. The TGI in assay [7] was 30.7 µM; in assay [8], above 100 µM; in [9] it was above 100 µM; in [10], above 100 µM.

For `CCOc1cccc2nc3cccc(C(=O)NCCN(C)C)c3nc12`, the TGI in [1] is above 28.7 µM; in assay [2] it was above 100 µM; in assay [3] it was 11.6 µM; in assay [4], 2.18 µM; in [5], 0.746 µM; in assay [6] it was 2.08 µM. Further, the TGI in assay [7] was above 100 µM; in [8] it was 6.77 µM; in assay [9] it was above 35.4 µM; in assay [10], 3.59 µM.

Take `Oc1ccc(Cc2ccccc2)c2cccnc12`: the GI50 in assay [1] was 2.04 µM; in assay [2], 4.21 µM; in assay [3], 2.32 µM; in assay [4] it was 2.03 µM; in assay [5] it was 1.41 µM; in assay [6], 13.8 µM. For the same compound, the GI50 in [7] was 3.69 µM; in assay [8] it was 1.66 µM; in assay [9], 3.43 µM; in [10], 2.61 µM. In addition, the TGI was 6.57 µM in [1]; 71.9 µM in [2]; above 100 µM in assay [3]; 80.6 µM in assay [4]; 93.8 µM in assay [5]; 67.5 µM in assay [6]. In addition, the TGI in [7] was 76 µM; in [8] it was 19.2 µM; in assay [9], above 100 µM; in [10] it was above 100 µM.

Consider `O=C(N/N=C/c1ccc(Cl)cc1Cl)c1ccccc1Nc1cccc(C(F)(F)F)c1`, for which the GI50 is 6.74 µM in [1]; 2.31 µM in [2]; 12.2 µM in [3]; 5.36 µM in [4]; 4.22 µM in assay [5]; 3.67 µM in assay [6]. For the same compound, the GI50 in [7] was 3.34 µM; in [8] it was 3.36 µM; in assay [9] it was 12.5 µM; in assay [10], 7.66 µM. For the same compound, the TGI in [1] was determined as 31 µM; in assay [2] it was 6.18 µM; in assay [3], 80.1 µM; in assay [4] it was 18.3 µM; in [5], 40 µM; in [6] it was 43.5 µM. Moreover, the TGI in assay [7] worked out at 20.7 µM; in [8] it was 12.8 µM; in [9], 39.2 µM; in [10], 48.2 µM.

Consider `CC(C)(C)C1(O)Cc2ccccc2C(=O)O1` (configuration not stated), for which the TGI in assay [1], in assay [2], in [3], in [4], in assay [5] and in assay [6] was above 100 µM each time. Also, the TGI in assay [7], in [8], in assay [9] and in assay [10] was above 100 µM each time.

In the case of `Cc1noc(C)c1-c1ccc2[nH]c(=O)n3c2c1OC[C@@H]3c1ccccn1`, the GI50 in assay [1] was 3.94 µM; in [2] it was 2.92 µM; in assay [3] it was 2.39 µM; in assay [4] it was 0.482 µM; in assay [5] it was 11.5 µM; in assay [6], 2.22 µM. The GI50 is 2.64 µM in assay [7], 2.05 µM in assay [8], 0.634 µM in assay [9] and 21.4 µM in assay [10]. Moreover, the TGI in [1], in [2], in assay [3], in assay [4], in [5] and in assay [6] was above 100 µM each time. For the same compound, the TGI in assay [7], in assay [8], in assay [9] and in assay [10] was above 100 µM throughout.

Take `CC1(C)OC(=O)C=C([O-])O1.CC1(C)OC(=O)C=C([O-])O1.O=c1c(O)c(-c2ccc([O-])cc2[O-])oc2cc(O)cc(O)c12.[Ti+4]`: the TGI in assay [1], in [2], in assay [3], in [4], in assay [5] and in assay [6] was above 100 µM each time. For the same compound, the TGI in [7] is 63 µM; in assay [8] it was 60.2 µM; in [9] it was above 100 µM; in assay [10], above 100 µM. For the same compound, the GI50 was 31.6 µM in assay [5] and 83.1 µM in assay [9].

Consider `CC1(C)CCc2cc3c(cc2O1)OCCC3=O`, for which the TGI in assay [1], in assay [2], in assay [3], in assay [4], in assay [5] and in assay [6] was above 100 µM throughout. For the same compound, the TGI in assay [7], in [8], in assay [9] and in assay [10] was above 100 µM throughout.

For `COc1cc(/C=C2\CC3C4CC=C5CC(N6CCCC6)CC[C@]5(C)C4CC[C@]3(C)C2OC(C)=O)ccc1OCCN1CCCC1` (some centres not stated), the GI50 in assay [1] was 1.73 µM; in assay [2], 2.08 µM; in [3], 3.41 µM; in [4], 19.7 µM; in [5] it was 2.18 µM; in assay [6], 3.19 µM. Moreover, the GI50 is 1.69 µM in assay [7], 1.92 µM in assay [8], 3.28 µM in [9] and 4.01 µM in assay [10]. The TGI was 3.16 µM in assay [1]; 4.63 µM in assay [2]; 13.4 µM in [3]; 34.6 µM in [4]; 4.48 µM in [5]; 10.1 µM in [6]. Further, the TGI was 3.25 µM in [7], 3.5 µM in [8], 8.92 µM in assay [9] and 15.7 µM in assay [10].

Consider `CN1CCN(Cc2ccc(NC(=O)c3ccc(C(C)(C)C)c(C#Cc4cnc5cccnn45)c3)cc2C(F)(F)F)CC1`, for which the GI50 was 1.67 µM in assay [1]; 1.91 µM in [2]; 5.8 µM in assay [3]; 1.76 µM in assay [4]; 1.77 µM in assay [5]; 4.63 µM in assay [6]. For the same compound, the GI50 is 2.2 µM in [7], 2.03 µM in assay [8], 11.3 µM in assay [9] and 9.62 µM in assay [10]. Further, the TGI was 3.24 µM in [1]; 3.57 µM in assay [2]; 19.3 µM in assay [3]; 3.35 µM in assay [4]; 4 µM in assay [5]; 20.1 µM in assay [6]. The TGI stood at 3.95 µM in [7], 4.14 µM in assay [8], 24.4 µM in assay [9] and 26.4 µM in assay [10].

On to `COc1cc2c3c(n(CCCN4CCC(N)CC4)c(=O)c2cc1OC)-c1cc2c(cc1C3=O)OCO2`, for which the GI50 in assay [1] was 0.763 µM; in assay [2] it was 0.278 µM; in assay [3], 1.31 µM; in assay [4], 0.423 µM; in assay [5], 0.0456 µM; in [6] it was 0.757 µM. Also, the GI50 in assay [7] is 3.4 µM; in assay [8], 0.254 µM; in assay [9] it was 3.47 µM; in [10], 0.338 µM. Also, the TGI in [1] is 2.38 µM; in [2], 0.927 µM; in assay [3], 3.87 µM; in assay [4], 1.11 µM; in assay [5], 1.89 µM; in [6], 2.95 µM. For the same compound, the TGI in assay [7] came out at 21.7 µM; in assay [8] it was 0.863 µM; in assay [9], 13.2 µM; in assay [10], 1.08 µM.

Consider `Cc1ccc(C(=O)CC(Sc2cccc(Cl)c2Cl)c2ccc(Cl)cc2)cc1C` (configuration not stated), for which the GI50 in [1] was 17.8 µM; in assay [2], 19.2 µM; in assay [3], 21.6 µM; in assay [4] it was 24.2 µM; in [5] it was 33 µM; in [6] it was 20.5 µM. In addition, the GI50 in [7] was 26.2 µM; in assay [8], 22.8 µM; in assay [9], 23.3 µM; in assay [10], 16.1 µM. In addition, the TGI is 36.2 µM in assay [1]; 52.6 µM in [2]; 42.1 µM in assay [3]; 60.6 µM in assay [4]; above 100 µM in assay [5]; 37.4 µM in [6]. Besides, the TGI turned out to be 61.9 µM in [7], 53.6 µM in assay [8], 59.7 µM in [9] and 32.7 µM in assay [10].

In the case of `COc1ccc(C(=O)C(C(=O)CCC(=O)Nc2cccc(C(F)(F)F)c2)c2ccccc2)cc1` (configuration not stated), the TGI in assay [1], in assay [2], in assay [3], in assay [4], in assay [5] and in assay [6] was above 100 µM throughout. The TGI in assay [7], in assay [8], in [9] and in [10] was above 100 µM in each case.

Consider `COc1ccc2c(-c3cc4ccccc4o3)cc(=O)oc2c1`, for which the TGI in assay [1] is 78.6 µM; in assay [2] it was above 100 µM; in [3], above 100 µM; in assay [4] it was 46.7 µM; in [5], above 100 µM; in [6], above 100 µM. Further, the TGI in [7] is above 91.8 µM; in assay [8], 49.6 µM; in [9], 52.1 µM; in assay [10], above 100 µM.

With `Cc1ncc(NC(=O)c2ccc(CN3CCN(C)CC3)c(C(F)(F)F)c2)cc1Nc1nccc(-c2cccnc2)n1`, the GI50 in assay [1] is 15.9 µM; in assay [2], 16.4 µM; in assay [3] it was 17.4 µM; in assay [4] it was 15.7 µM; in assay [5], 14.9 µM; in [6], 19.5 µM. In addition, the GI50 in assay [7] is 17.2 µM; in [8], 11.8 µM; in assay [9] it was 19.3 µM; in assay [10], 14.4 µM. Further, the TGI is 29.7 µM in assay [1]; 31.5 µM in assay [2]; 31.4 µM in [3]; 30.5 µM in assay [4]; 49.6 µM in [5]; 39.7 µM in [6]. Further, the TGI in [7] amounted to 33.8 µM; in assay [8], 24.4 µM; in assay [9], 34.2 µM; in [10], 28.9 µM.

Regarding `C[C@H]1CCC/C=C/[C@@H]2C[C@H](N)C[C@H]2[C@H](O)/C=C/C(=O)O1`, the GI50 was above 100 µM in assay [1]; above 100 µM in assay [2]; above 100 µM in assay [3]; above 100 µM in assay [4]; 77.3 µM in assay [5]; above 100 µM in assay [6]. Besides, the GI50 in assay [7], in [8], in [9] and in assay [10] was above 100 µM in each case. The TGI in [1], in assay [2], in [3], in [4], in [5] and in assay [6] was above 100 µM in each case. Also, the TGI in assay [7], in assay [8], in [9] and in assay [10] was above 100 µM each time.

Take `CC(=O)c1c(C)n([O-])c2cc(C)c(C)cc2[n+]1=O`: the TGI in [1], in [2], in assay [3], in [4], in assay [5] and in assay [6] was above 100 µM throughout. Moreover, the TGI in assay [7], in assay [8], in assay [9] and in assay [10] was above 100 µM throughout.

Values taken from PubChem BioAssay (NCI).
